# In ChEMBL document CHEMBL1201862, “PubChem BioAssay data set” (2004):
#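 48-hour exposure; five concentrations; linearly interpolated endpoints. GI50: concentration for 50% inhibition of growth.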 Calls of active or inactive are those of the source. Rule as the data show it: active = GI50 up to about 1.1 µM and inactive = higher.
# Columns and labels:
# Experiment in all cases: NCI anticancer screen, dose series, 48 h
# IGROV-1 = tested on: IGROV-1
# CAKI-1 = tested on: CAKI-1
# MDA-MB-435 = tested on: MDA-MB-435
# K562 = tested on: K562
# SK-MEL-5 = tested on: SK-MEL-5
# 786-0 = tested on: 786-0
# BT-549 = tested on: BT-549
# Malme-3M = tested on: Malme-3M
# NCI/ADR-RES = tested on: NCI/ADR-RES
# A549 = tested on: A549
# UO-31 = tested on: UO-31
# RPMI-8226 = tested on: RPMI-8226
# Hs-578T = tested on: Hs-578T
# SNB-19 = tested on: SNB-19
# ACHN = tested on: ACHN
# SK-MEL-2 = tested on: SK-MEL-2
# T47D = tested on: T47D
# SK-MEL-28 = tested on: SK-MEL-28
# LOX IMVI = tested on: LOX IMVI
# HL-60 = tested on: HL-60
SMILES,GI50 (IGROV-1),GI50 (CAKI-1),GI50 (MDA-MB-435),GI50 (K562),GI50 (SK-MEL-5),GI50 (786-0),GI50 (BT-549),GI50 (Malme-3M),GI50 (NCI/ADR-RES),GI50 (A549),GI50 (UO-31),GI50 (RPMI-8226),GI50 (Hs-578T),GI50 (SNB-19),GI50 (ACHN),GI50 (SK-MEL-2),GI50 (T47D),GI50 (SK-MEL-28),GI50 (LOX IMVI),GI50 (HL-60)
C[n+]1c(-c2ccc(/C=N/Nc3ccnc(N/N=C/c4ccc(-c5cn6ccsc6[n+]5C)cc4)n3)cc2)cn2ccsc21,19.1 µM (inactive),18.5 µM (inactive),4.57 µM (inactive),12.1 µM (inactive),19.3 µM (inactive),15.8 µM (inactive),36.1 µM (inactive),29.9 µM (inactive),39.7 µM (inactive),28.6 µM (inactive),18.8 µM (inactive),8.61 µM (inactive),69.5 µM (inactive),32.8 µM (inactive),23.9 µM (inactive),29.8 µM (inactive),–,–,–,–
CCOC(=O)c1cn(CC)c(=O)n2c1nc1ccccc12,33.3 µM (inactive),57.9 µM (inactive),> 100 µM (inactive),42.1 µM (inactive),49.8 µM (inactive),58.5 µM (inactive),56.9 µM (inactive),–,62.5 µM (inactive),58.7 µM (inactive),3.48 µM (inactive),24.4 µM (inactive),–,> 100 µM (inactive),55 µM (inactive),> 100 µM (inactive),63.5 µM (inactive),> 100 µM (inactive),31.9 µM (inactive),–
C/C(=C\C(=N\NC(=N)N)c1ccccc1)c1ccccc1,0.432 µM (active),0.149 µM (active),1.24 µM (inactive),1.53 µM (inactive),0.281 µM (active),0.843 µM (active),–,1.16 µM (inactive),2.78 µM (inactive),0.577 µM (active),–,1.01 µM (active),1.32 µM (inactive),1.6 µM (inactive),0.2 µM (active),–,0.12 µM (active),2.58 µM (inactive),1.23 µM (inactive),–
O=[N+]([O-])c1cccc([N+](=O)[O-])c1Cl,15.9 µM (inactive),3.18 µM (inactive),17.9 µM (inactive),5.71 µM (inactive),16.4 µM (inactive),26.4 µM (inactive),–,17.4 µM (inactive),21.7 µM (inactive),14.9 µM (inactive),1.32 µM (inactive),1.15 µM (inactive),27 µM (inactive),13.1 µM (inactive),14.7 µM (inactive),21.8 µM (inactive),2.96 µM (inactive),21.1 µM (inactive),1.35 µM (inactive),2.82 µM (inactive)
Cc1ccc2c(=O)cc(-c3cccc(F)c3)[nH]c2n1,0.0755 µM (active),0.0498 µM (active),0.0111 µM (active),0.0313 µM (active),0.0206 µM (active),0.0446 µM (active),0.0348 µM (active),0.0379 µM (active),0.0196 µM (active),0.0476 µM (active),–,0.0397 µM (active),0.0237 µM (active),0.153 µM (active),0.0514 µM (active),0.0398 µM (active),–,0.64 µM (active),0.0518 µM (active),0.0212 µM (active)
O=C(O)[C@@H]1OCCOCCO[C@@H](C(=O)O)[C@H](C(=O)O)OCCOCCO[C@H]1C(=O)O,> 100 µM (inactive),> 100 µM (inactive),–,> 72.3 µM (inactive),> 100 µM (inactive),> 100 µM (inactive),–,> 100 µM (inactive),–,> 100 µM (inactive),> 100 µM (inactive),> 38.4 µM (inactive),–,> 100 µM (inactive),> 61.8 µM (inactive),> 100 µM (inactive),–,> 100 µM (inactive),> 71.3 µM (inactive),14.3 µM (inactive)
CCOP(=O)(OCC)OC(C#N)c1ccc(-c2ccccc2)cc1 (stereo unspecified),36.3 µM (inactive),22.4 µM (inactive),–,20.3 µM (inactive),16 µM (inactive),16.9 µM (inactive),–,19.6 µM (inactive),–,18.4 µM (inactive),47.3 µM (inactive),20.7 µM (inactive),–,73.1 µM (inactive),33 µM (inactive),36.3 µM (inactive),–,31.4 µM (inactive),13.7 µM (inactive),18.4 µM (inactive)
Cc1ccc(-c2c(C#N)c(-c3ccccc3)c(C#N)c(=O)n2NS(=O)(=O)c2ccc(C)cc2)cc1,48.1 µM (inactive),48.4 µM (inactive),48.9 µM (inactive),40.3 µM (inactive),12.6 µM (inactive),44.6 µM (inactive),70.1 µM (inactive),> 100 µM (inactive),> 100 µM (inactive),34.4 µM (inactive),–,2.75 µM (inactive),> 100 µM (inactive),5.56 µM (inactive),33.3 µM (inactive),35.7 µM (inactive),–,52.2 µM (inactive),19.8 µM (inactive),–
CC(C)(C)C(=O)C1CC(=O)c2ccccc2C1=O (stereo unspecified),33.7 µM (inactive),39.6 µM (inactive),–,40.6 µM (inactive),32.4 µM (inactive),32.6 µM (inactive),–,16.3 µM (inactive),–,38.2 µM (inactive),21.7 µM (inactive),23 µM (inactive),–,24 µM (inactive),44.7 µM (inactive),10.6 µM (inactive),–,20.5 µM (inactive),40.8 µM (inactive),20.7 µM (inactive)
COC(=O)C1(C(=O)OC)CC(=O)c2c(OC(=O)c3cccc(OC)c3C#N)ccc(OC(=O)c3cccc(OC)c3C#N)c2C1,> 100 µM (inactive),> 100 µM (inactive),> 100 µM (inactive),> 100 µM (inactive),> 100 µM (inactive),> 100 µM (inactive),–,> 100 µM (inactive),> 100 µM (inactive),> 100 µM (inactive),59.2 µM (inactive),39.1 µM (inactive),> 100 µM (inactive),> 100 µM (inactive),> 100 µM (inactive),–,–,> 100 µM (inactive),> 100 µM (inactive),> 100 µM (inactive)
OCCSCCCSCCO,> 100 µM (inactive),–,> 10 µM (inactive),> 100 µM (inactive),> 100 µM (inactive),> 100 µM (inactive),> 100 µM (inactive),–,> 100 µM (inactive),> 100 µM (inactive),> 100 µM (inactive),–,–,> 100 µM (inactive),–,–,> 100 µM (inactive),> 100 µM (inactive),> 100 µM (inactive),30.7 µM (inactive)
CCOC(=O)/C(C(=S)Nc1ccccc1)=C(/N)N1CCCC1,> 100 µM (inactive),> 100 µM (inactive),37.9 µM (inactive),37 µM (inactive),> 100 µM (inactive),> 100 µM (inactive),–,> 100 µM (inactive),> 100 µM (inactive),> 100 µM (inactive),> 100 µM (inactive),> 100 µM (inactive),77.4 µM (inactive),50.2 µM (inactive),> 100 µM (inactive),> 100 µM (inactive),–,> 100 µM (inactive),> 100 µM (inactive),49.9 µM (inactive)
N#CC(C(=O)C(N)=O)c1ccccc1Cl (stereo unspecified),> 100 µM (inactive),> 100 µM (inactive),–,> 100 µM (inactive),> 100 µM (inactive),> 100 µM (inactive),–,> 100 µM (inactive),–,> 100 µM (inactive),> 100 µM (inactive),> 100 µM (inactive),–,> 100 µM (inactive),> 100 µM (inactive),> 100 µM (inactive),–,> 100 µM (inactive),> 100 µM (inactive),> 100 µM (inactive)
CCC(C)C(NC(=O)c1cccc2c(=O)c3ccccc3[nH]c12)C(=O)O (stereo unspecified),96.8 µM (inactive),–,> 100 µM (inactive),91.8 µM (inactive),> 100 µM (inactive),> 100 µM (inactive),–,> 100 µM (inactive),> 100 µM (inactive),98.9 µM (inactive),48.6 µM (inactive),57.1 µM (inactive),> 100 µM (inactive),99.5 µM (inactive),86.7 µM (inactive),> 100 µM (inactive),–,> 100 µM (inactive),> 100 µM (inactive),–
COc1cc2ccc3c4ccccc4cnc3c2cc1OC,> 100 µM (inactive),> 100 µM (inactive),–,> 100 µM (inactive),> 100 µM (inactive),> 100 µM (inactive),–,> 100 µM (inactive),–,> 100 µM (inactive),> 100 µM (inactive),> 100 µM (inactive),–,> 100 µM (inactive),> 100 µM (inactive),> 100 µM (inactive),–,> 100 µM (inactive),> 100 µM (inactive),> 100 µM (inactive)
COc1ccc(/N=N/c2c(O)ccc3ccccc23)cc1,5.47 µM (inactive),> 100 µM (inactive),> 100 µM (inactive),–,–,61.8 µM (inactive),27.4 µM (inactive),14.1 µM (inactive),22.4 µM (inactive),17.9 µM (inactive),31.3 µM (inactive),–,11.2 µM (inactive),–,20.4 µM (inactive),35.6 µM (inactive),–,> 100 µM (inactive),49.2 µM (inactive),> 100 µM (inactive)
CC(C)(C)C1CCC2c3c([nH]c4ccccc34)C3C(=O)N(c4cc(Cl)ccc4Cl)C(=O)C3C2C1 (stereo unspecified),> 100 µM (inactive),> 100 µM (inactive),> 100 µM (inactive),> 100 µM (inactive),> 100 µM (inactive),> 100 µM (inactive),> 100 µM (inactive),> 100 µM (inactive),> 100 µM (inactive),> 100 µM (inactive),> 100 µM (inactive),> 100 µM (inactive),45.5 µM (inactive),> 100 µM (inactive),> 100 µM (inactive),> 100 µM (inactive),–,–,38.8 µM (inactive),> 10 µM (inactive)
